{
  "source": "patent US9370569B2",
  "about": "(priority 2014, dated 2016)",
  "data": [
    {"target": "influenza RNA polymerase (Influenza A virus, UniProt P03431)", "assay": "Influenza polymerase assay (radiolabeled nucleotide incorporation)", "type": "biochemical", "settings": "nucleotide triphosphates in influenza polymerase assay", "units": {"IC50": "µM"}, "values": [
      {"smiles": "O=c1ccn([C@@H]2O[C@@](COP(=O)(O)OP(=O)(O)OP(=O)(O)O)(C(F)F)[C@@H](O)[C@H]2O)c(=O)[nH]1", "note": "[TPP-1]", "IC50": "10 to 100"},
      {"smiles": "O=c1[nH]c(=O)n([C@@H]2O[C@@](COP(=O)(O)OP(=O)(O)OP(=O)(O)O)(C(F)F)[C@@H](O)[C@H]2O)cc1Cl", "note": "[TPP-2]", "IC50": "10 to 100"},
      {"smiles": "O=c1[nH]c(=O)n([C@@H]2O[C@@](COP(=O)(O)OP(=O)(O)OP(=O)(O)O)(C(F)F)[C@@H](O)[C@H]2O)cc1F", "note": "[TPP-3]", "IC50": "10 to 100"},
      {"smiles": "Nc1ccn([C@@H]2O[C@@](COP(=O)(O)OP(=O)(O)OP(=O)(O)O)(C(F)F)[C@@H](O)[C@H]2O)c(=O)n1", "note": "[TPP-4]", "IC50": "< 10"},
      {"smiles": "Nc1nc(=O)n([C@@H]2O[C@@](COP(=O)(O)OP(=O)(O)OP(=O)(O)O)(C(F)F)[C@@H](O)[C@H]2O)cc1Cl", "note": "[TPP-5]", "IC50": "10 to 100"},
      {"smiles": "Nc1nc(=O)n([C@@H]2O[C@@](COP(=O)(O)OP(=O)(O)OP(=O)(O)O)(C(F)F)[C@@H](O)[C@H]2O)cc1F", "note": "[TPP-6]", "IC50": "< 10"},
      {"smiles": "Nc1nc(N)c2ncn([C@@H]3O[C@@](COP(=O)(O)OP(=O)(O)OP(=O)(O)O)(C(F)F)[C@@H](O)[C@H]3O)c2n1", "note": "[TPP-7]", "IC50": "> 100"},
      {"smiles": "Nc1ncnc2c1ncn2[C@@H]1O[C@@](COP(=O)(O)OP(=O)(O)OP(=O)(O)O)(C(F)F)[C@@H](O)[C@H]1O", "note": "[TPP-8]", "IC50": "< 10"},
      {"smiles": "Nc1ncnc2ncn([C@@H]3O[C@@](COP(=O)(O)OP(=O)(O)OP(=O)(O)O)(C(F)F)[C@@H](O)[C@H]3O)c12", "note": "[TPP-9]", "IC50": "< 10"},
      {"smiles": "Nc1nc2c(ncn2[C@@H]2O[C@@](COP(=O)(O)OP(=O)(O)OP(=O)(O)O)(C(F)F)[C@@H](O)[C@H]2O)c(=O)[nH]1", "note": "[TPP-10]", "IC50": "< 10"}
    ]}
  ]
}
